From patent US20260109674A1, “ALLOSTERIC MODULATION OF MUSCARINIC ACETYLCHOLINE RECEPTOR EFFICACY” (The University of Toledo, priority 2022, published 2026)
Marks after values point to notes of the source that are not given here.

Experiments:
[1] = biological target: T1, M1 muscarinic receptors expressed in CHO cells (Homo sapiens, UniProt P11229); experiment: [3H]-arachidonic acid release screen with and without ACh and modulator; format: cell-based
T1 construct: expressed in transfected cells; host or cells: CHO (CHO-hM1, stably transfected)
T1 sequence (P11229 1-460): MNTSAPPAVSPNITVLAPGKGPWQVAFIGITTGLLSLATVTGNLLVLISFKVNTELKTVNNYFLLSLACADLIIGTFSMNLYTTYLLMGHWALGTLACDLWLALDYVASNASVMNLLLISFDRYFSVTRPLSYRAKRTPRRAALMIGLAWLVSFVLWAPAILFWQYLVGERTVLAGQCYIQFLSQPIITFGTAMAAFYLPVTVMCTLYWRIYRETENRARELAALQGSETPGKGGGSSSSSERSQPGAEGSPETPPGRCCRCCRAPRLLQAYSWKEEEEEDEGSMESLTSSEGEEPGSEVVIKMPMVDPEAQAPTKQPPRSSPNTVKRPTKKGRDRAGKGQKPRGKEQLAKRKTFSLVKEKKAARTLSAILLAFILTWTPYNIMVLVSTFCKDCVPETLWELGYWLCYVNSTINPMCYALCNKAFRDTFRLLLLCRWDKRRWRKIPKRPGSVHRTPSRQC
Procedure: CHO cells expressing human M1 muscarinic receptors were cultured at 37° C. in a 5% CO2 atmosphere in F12 medium supplemented with 5% fetal bovine serum, 100 units/mL penicillin, and 100 μg/mL streptomycin.
Measurement of [^3H]AA release was performed. Stably transfected CHO-hM1 or CHO-hM3 cells were seeded on 24-well plates (Greiner Bio-One GmbH, Frickenhausen, Germany) at a density of 5.0×10^4 cells/well in 0.5 ml of F-12 medium. Cells were incubated until they attached (approximately 3 h), followed by the addition of [^3H]AA to a final concentration of 0.05 μCi of [^3H]AA per well. The cells were then grown for 16 to 20 h before the assay was performed. [^3H]AA release was measured in Eagle's basal medium with 20 mM HEPES and 2 mg/ml fatty acid-free bovine serum albumin (EM-BSA). Cells were rinsed twice with EM-BSA, followed by the addition of EM-BSA media containing experimental agents and incubated for 1 h at 37° C. The assay was terminated by aspiration of the media, and the amount of [^3H]AA released was determined by liquid scintillation counting (Beckman-Coulter LS6500).
For some assays, pretreatment with phenoxybenzamine (POB) was employed, as indicated, to reduce the number of available receptors per cell. Stock POB was made up at 10 mM in ethanol and stored at −20° C. Each well was pretreated with 0.5 ml of the appropriate concentration in PBS with 1 mM CaCl2 and 1 mM MgCl2 (PBS++) for 30 min at 37° C., followed by 5 washes with PBS++. After pretreatment, the normal protocol was followed as above.
Tabulated [^3H]AA release data are represented as a fraction of maximal release in the presence of 100 μM ACh or as the fraction of release elicited by the appropriate concentration of ACh alone, as indicated dose-response curves were normalized to the maximal response of ACh without allosteric ligand. Some response curves were analyzed using the empirical four-parameter equation: […]
Disintegration per minute (DPM) values for a single compound were obtained in triplicate, and each compound was evaluated on three separate 24-well plates. The mean values for each condition from each of the three 24-well plates were used for the statistical analysis. The baseline mean was subtracted from each value, then normalized to the mean response produced by 100 μM ACh (set at 1.0). Statistical analyses were completed on the normalized values via one-way repeated measures ANOVA with Tukey's post hoc test. Statistically significant differences are noted as follows: *, p<0.05; **, p<0.01; ***, p<0.001.

[2] = tested on: wild-type zebrafish larvae; experiment: Maximum tolerated concentration (MTC) determination in zebrafish larvae; format: in vivo, Danio rerio; conditions: after 24-hour exposure; Table 3
Procedure: Determination of maximum tolerated concentration was completed by placing 5 days post fertilization (dpf) wild-type zebrafish larvae in a 24 well plate at 6 fish per well, and one compound concentration per well. […] Death was determined by the absence of heartbeat. Additional endpoints were used to assess toxicity at non-lethal concentrations such as startle capacity (poke stimulus), abnormalities in swimming behavior (loss of dorsoventral balance), and gross morphological deformities (bent body). […] The MTC determination was used to select three doses of each compound (low, medium, high dose) to be used in behavioral assays.

[3] = tested on: wild-type zebrafish larvae; experiment: General locomotor assay in zebrafish larvae (locomotor activity, repetitive behaviors); format: in vivo, Danio rerio; conditions: Table 3; test concentration not given; N = 12
Procedure: Five days post fertilization (dpf) zebrafish larvae were exposed to a range of nonlethal concentrations of the compounds in a 24-well plate with appropriate controls. The movement of each larval zebrafish was monitored with the Noldus behavior recording system (Noldus Information Technology, Leesburg VA) and quantified using EthoVision® XT 15 software (Noldus Information Technology, Leesburg VA). The plate was immediately placed in the incubator for a 30-minute exposure period. After 30 minutes, the plate was transferred to the Noldus system and swimming behavior was recorded in 100% light for 30 minutes to measure spontaneous swimming behavior. The light was switched off for 10 minutes (dark period) and then switched on for 10 minutes (light period), which was then repeated for two additional cycles. In total, the larvae were exposed to three cycles of alternating 10-minute dark and light periods (100% darkness-to-100% light). […]
All data for exposure and the behavioral end points were analyzed by one-way ANOVA (factor: drug conc) followed by a Dunnett's multiple comparisons test for post hoc significance between drug concentration and control group. Statistically significant differences are noted as follows: *, p<0.05; **, p<0.01; ***, p<0.001.

[4] = 10 μM modulator, Table 4, N = 4-5

Row | SMILES | Maximum Tolerated Concentration [2] | Ratio of response of ACh with modulator to response of ACh alone, 0.1 μM ACh ([1]; 10 μM modulator, Table 1) | Ratio of response of ACh with modulator to response of ACh alone, 100 μM ACh ([1]; 10 μM modulator, Table 1) | Stimulation of [3H]AA release, No ACh (fraction of stimulation above the control) ([1]; 10 μM modulator, Table 1) | also measured
1 | COc1c(I)cc(Cn2cc(C(=O)O)c(=O)c3ccccc32)cc1I [GK-1-47] | – | – | – | – | Ratio of response of ACh with modulator to response of ACh alone, 0.1 μM ACh [1, 4]: 2.46 ± 0.13; Ratio of response of ACh with modulator to response of ACh alone, 100 μM ACh [1, 4]: 1.33 ± 0.04; Stimulation of [3H]AA release, No ACh (fraction of stimulation above the control) [1, 4]: 0.24 ± 0.01
2 | O=C1C(=O)N(Cc2cc(F)c(F)c(F)c2)c2ccccc21 [Compound 8i, 1-(3,4,5-trifluorobenzyl)indoline-2,3-dione] | 10 µM | 1.39 ± 0.06 | 1.05 ± 0.02 | 0.07 ± 0.01 | –
3 | COc1ccc(CN2C(=O)C(=O)c3ccccc32)cc1Cl [Compound 8f, 1-(3-chloro-4-methoxybenzyl)indoline-2,3-dione] | 10 µM | 1.49 ± 0.03 | 1.13 ± 0.04 | 0.08 ± 0.02 | –
4 | CCCCc1oc2ccccc2c1C(=O)c1cc(I)c(OCCN(CC)C(=O)c2ccccc2)c(I)c1 [Compound 5b, N-(2-(4-(2-butylbenzofuran-3-carbonyl)-2,6-diiodophenoxy)ethyl)-N-ethylbenzamide] | 10 µM | 1.34 ± 0.05 | 1.26 ± 0.05 | 0.02 ± 0.01 | Increase of mAChR activity compared to treatment with ACh alone ([1]; 10 μM modulator): 80%; Intrinsic agonist activity (in words) ([1]; modulator 10 μM, without ACh): lacked intrinsic activity
5 | COc1ccc(CN2C(=O)C(=O)c3ccccc32)cc1Br [Compound 8d, 1-(3-bromo-4-methoxybenzyl)indoline-2,3-dione] | 100 µM | 1.31 ± 0.06 | 0.87 ± 0.01 | 0.04 ± 0.01 | –
6 | COc1c(F)cc(CN2C(=O)C(=O)c3ccccc32)cc1F [Compound 8g, 1-(3,5-difluoro-4-methoxybenzyl)indoline-2,3-dione] | 30 µM | 1.33 ± 0.03 | 0.94 ± 0.02 | 0.03 ± 0.01 | –
7 | CCCCc1oc2ccccc2c1C(=O)c1cc(I)c(OCCNCC)c(I)c1.Cl [Compound 1, (2-butylbenzofuran-3-yl)(4-(2-(ethylamino)ethoxy)-3,5-diiodophenyl)methanone hydrochloride] | 3 µM | 0.75 ± 0.08 | 0.67 ± 0.02 | 0.22 ± 0.01 | Modulation of ACh activity (in words) ([1]; [3H]AA release, modulator 10 μM): weaker efficacy PAM relative to amiodarone
8 | CCCCc1oc2ccccc2c1C(=O)c1cc(I)c(OCCN(CC)CC)c(I)c1 [Amiodarone, reference compound] | 10 µM | – | – | – | –
9 | COc1ccc(Cn2cc(C(=O)O)c(=O)c3ccccc32)cc1 [BQCA, reference compound] | – | 2.34 ± 0.23 | 0.86 ± 0.03 | 0.37 ± 0.04 | Angular Velocity [3]: 141.8 ± 14.9* % of control; Total Distance Moved [3]: 72.0 ± 10.0* % of control; Variance of Turn Angle [3]: 119.6 ± 7.0* % of control; Ratio of response of ACh with modulator to response of ACh alone, 0.1 μM ACh ([1]; 3 μM modulator, Table 1): 2.43 ± 0.19; Ratio of response of ACh with modulator to response of ACh alone, 100 μM ACh ([1]; 3 μM modulator, Table 1): 0.99 ± 0.02; Stimulation of [3H]AA release, No ACh (fraction of stimulation above the control) ([1]; 3 μM modulator, Table 1): 0.06 ± 0.06
10 | O=C1C(=O)N(Cc2ccc(Br)cc2)c2ccccc21 [VU0119498, reference compound] | – | 1.22 ± 0.34 | 1.04 ± 0.07 | 0.07 ± 0.00 | –
